Results: PubChem BioAssay (NCI)
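Five compound concentrations were applied to cells in 96-well plates for 48 hours; endpoints were derived by simple linear interpolation of the resulting dose-response curve. Definition used: TGI = concentration required for complete inhibition of growth.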

Experiments:
Experiment in all cases: NCI tumour cell line growth inhibition, 48 h
786-0 renal = system: 786-0 renal
A498 renal = system: A498 renal
A549 NSCLC = system: A549 NSCLC
ACHN renal = system: ACHN renal
CAKI-1 renal = system: CAKI-1 renal
CCRF-CEM leukemia = system: CCRF-CEM leukemia
COLO 205 colon = system: COLO 205 colon
DLD-1 colon = system: DLD-1 colon
DMS 114 small cell lung = system: DMS 114 small cell lung
DMS 273 small cell lung = system: DMS 273 small cell lung
EKVX NSCLC = system: EKVX NSCLC
HCC-2998 colon = system: HCC-2998 colon
HCT-116 colon = system: HCT-116 colon
HCT-15 colon = system: HCT-15 colon
HL-60(TB) leukemia = system: HL-60(TB) leukemia
HOP-18 NSCLC = system: HOP-18 NSCLC
HOP-62 NSCLC = system: HOP-62 NSCLC
HOP-92 NSCLC = system: HOP-92 NSCLC
HT29 colon = system: HT29 colon
IGROV1 ovarian = system: IGROV1 ovarian
K-562 leukemia = system: K-562 leukemia
KM12 colon = system: KM12 colon
KM20L2 colon = system: KM20L2 colon
LOX IMVI melanoma = system: LOX IMVI melanoma
LXFL 529 NSCLC = system: LXFL 529 NSCLC
M14 melanoma = system: M14 melanoma
M19-MEL melanoma = system: M19-MEL melanoma
MALME-3M melanoma = system: MALME-3M melanoma
MOLT-4 leukemia = system: MOLT-4 leukemia
NCI-H226 lung = system: NCI-H226 lung
NCI-H23 lung = system: NCI-H23 lung
NCI-H460 lung = system: NCI-H460 lung
NCI-H522 lung = system: NCI-H522 lung
OVCAR-3 ovarian = system: OVCAR-3 ovarian
OVCAR-4 ovarian = system: OVCAR-4 ovarian
OVCAR-5 ovarian = system: OVCAR-5 ovarian
OVCAR-8 ovarian = system: OVCAR-8 ovarian
RPMI-8226 leukemia = system: RPMI-8226 leukemia
RXF 393 renal = system: RXF 393 renal
RXF-631 renal = system: RXF-631 renal
SF-268 CNS = system: SF-268 CNS
SF-295 CNS = system: SF-295 CNS
SK-MEL-2 melanoma = system: SK-MEL-2 melanoma
SK-MEL-28 melanoma = system: SK-MEL-28 melanoma
SK-MEL-5 melanoma = system: SK-MEL-5 melanoma
SK-OV-3 ovarian = system: SK-OV-3 ovarian
SN12C renal = system: SN12C renal
SNB-19 CNS = system: SNB-19 CNS
SNB-75 CNS = system: SNB-75 CNS
SNB-78 CNS = system: SNB-78 CNS
SR leukemia = system: SR leukemia
SW-620 colon = system: SW-620 colon
TK-10 renal = system: TK-10 renal
U251 CNS = system: U251 CNS
UACC-257 melanoma = system: UACC-257 melanoma
UACC-62 melanoma = system: UACC-62 melanoma
UO-31 renal = system: UO-31 renal
XF 498 CNS = system: XF 498 CNS
BT-549 breast = system: BT-549 breast
DU-145 prostate = system: DU-145 prostate
HS 578T breast = system: HS 578T breast
MCF7 breast = system: MCF7 breast
MDA-MB-231 breast = system: MDA-MB-231 breast
MDA-MB-435 = system: MDA-MB-435
MDA-N = system: MDA-N
NCI/ADR-RES ovarian = system: NCI/ADR-RES ovarian
PC-3 prostate = system: PC-3 prostate
SF-539 CNS = system: SF-539 CNS

CCCCCCCC(=O)OC(CBr)COC(=O)C(C)(C)C (stereo unspecified)
TGI (786-0 renal): > 100 µM
TGI (A498 renal): > 100 µM
TGI (A549 NSCLC): > 100 µM
TGI (ACHN renal): > 100 µM
TGI (CAKI-1 renal): > 100 µM
TGI (CCRF-CEM leukemia): > 87.2 µM
TGI (COLO 205 colon): > 100 µM
TGI (DLD-1 colon): > 100 µM
TGI (DMS 114 small cell lung): > 100 µM
TGI (DMS 273 small cell lung): > 100 µM
TGI (EKVX NSCLC): > 100 µM
TGI (HCC-2998 colon): > 100 µM
TGI (HCT-116 colon): > 100 µM
TGI (HCT-15 colon): > 100 µM
TGI (HL-60(TB) leukemia): > 100 µM
TGI (HOP-18 NSCLC): > 100 µM
TGI (HOP-62 NSCLC): > 100 µM
TGI (HOP-92 NSCLC): > 100 µM
TGI (HT29 colon): > 100 µM
TGI (IGROV1 ovarian): > 100 µM
TGI (K-562 leukemia): > 100 µM
TGI (KM12 colon): > 100 µM
TGI (KM20L2 colon): > 100 µM
TGI (LOX IMVI melanoma): > 100 µM
TGI (LXFL 529 NSCLC): > 100 µM
TGI (M14 melanoma): > 100 µM
TGI (M19-MEL melanoma): > 100 µM
TGI (MALME-3M melanoma): > 100 µM
TGI (MOLT-4 leukemia): 75.2 µM
TGI (NCI-H226 lung): > 100 µM
TGI (NCI-H23 lung): > 100 µM
TGI (NCI-H460 lung): > 100 µM
TGI (NCI-H522 lung): > 100 µM
TGI (OVCAR-3 ovarian): > 100 µM
TGI (OVCAR-4 ovarian): > 100 µM
TGI (OVCAR-5 ovarian): > 100 µM
TGI (OVCAR-8 ovarian): > 100 µM
TGI (RPMI-8226 leukemia): > 71.2 µM
TGI (RXF 393 renal): > 100 µM
TGI (RXF-631 renal): > 100 µM
TGI (SF-268 CNS): > 100 µM
TGI (SF-295 CNS): > 100 µM
TGI (SK-MEL-2 melanoma): > 100 µM
TGI (SK-MEL-28 melanoma): > 100 µM
TGI (SK-MEL-5 melanoma): > 100 µM
TGI (SK-OV-3 ovarian): > 100 µM
TGI (SN12C renal): > 100 µM
TGI (SNB-19 CNS): > 100 µM
TGI (SNB-75 CNS): 68.8 µM
TGI (SNB-78 CNS): > 100 µM
TGI (SR leukemia): 57.1 µM
TGI (SW-620 colon): > 100 µM
TGI (TK-10 renal): > 100 µM
TGI (U251 CNS): > 100 µM
TGI (UACC-257 melanoma): > 100 µM
TGI (UACC-62 melanoma): > 100 µM
TGI (UO-31 renal): > 100 µM
TGI (XF 498 CNS): > 100 µM

COC(=O)c1sc(C(=O)OC)c2c1CSC2
TGI (786-0 renal): > 100 µM
TGI (A498 renal): > 100 µM
TGI (A549 NSCLC): > 100 µM
TGI (ACHN renal): > 100 µM
TGI (BT-549 breast): > 100 µM
TGI (CAKI-1 renal): > 100 µM
TGI (CCRF-CEM leukemia): > 100 µM
TGI (COLO 205 colon): > 100 µM
TGI (DLD-1 colon): > 100 µM
TGI (DMS 114 small cell lung): > 100 µM
TGI (DMS 273 small cell lung): > 100 µM
TGI (DU-145 prostate): > 100 µM
TGI (EKVX NSCLC): > 100 µM
TGI (HCC-2998 colon): > 100 µM
TGI (HCT-116 colon): > 100 µM
TGI (HCT-15 colon): > 100 µM
TGI (HL-60(TB) leukemia): > 100 µM
TGI (HOP-18 NSCLC): > 100 µM
TGI (HOP-62 NSCLC): > 100 µM
TGI (HOP-92 NSCLC): > 93.6 µM
TGI (HS 578T breast): > 100 µM
TGI (HT29 colon): > 100 µM
TGI (IGROV1 ovarian): > 100 µM
TGI (K-562 leukemia): > 100 µM
TGI (KM12 colon): > 100 µM
TGI (KM20L2 colon): > 100 µM
TGI (LOX IMVI melanoma): > 100 µM
TGI (LXFL 529 NSCLC): > 100 µM
TGI (M14 melanoma): > 100 µM
TGI (M19-MEL melanoma): > 100 µM
TGI (MALME-3M melanoma): > 100 µM
TGI (MCF7 breast): > 100 µM
TGI (MDA-MB-231 breast): > 100 µM
TGI (MDA-MB-435): > 100 µM
TGI (MDA-N): > 100 µM
TGI (MOLT-4 leukemia): > 100 µM
TGI (NCI-H226 lung): > 100 µM
TGI (NCI-H23 lung): > 100 µM
TGI (NCI-H460 lung): > 100 µM
TGI (NCI-H522 lung): > 100 µM
TGI (NCI/ADR-RES ovarian): > 100 µM
TGI (OVCAR-3 ovarian): > 100 µM
TGI (OVCAR-4 ovarian): > 100 µM
TGI (OVCAR-5 ovarian): > 100 µM
TGI (OVCAR-8 ovarian): > 100 µM
TGI (PC-3 prostate): > 100 µM
TGI (RPMI-8226 leukemia): > 100 µM
TGI (RXF 393 renal): > 97.1 µM
TGI (RXF-631 renal): > 100 µM
TGI (SF-268 CNS): > 100 µM
TGI (SF-295 CNS): > 100 µM
TGI (SF-539 CNS): > 100 µM
TGI (SK-MEL-2 melanoma): > 100 µM
TGI (SK-MEL-28 melanoma): > 100 µM
TGI (SK-MEL-5 melanoma): > 100 µM
TGI (SK-OV-3 ovarian): > 100 µM
TGI (SN12C renal): > 100 µM
TGI (SNB-19 CNS): > 85.8 µM
TGI (SNB-75 CNS): 57.7 µM
TGI (SNB-78 CNS): > 100 µM
TGI (SR leukemia): > 100 µM
TGI (SW-620 colon): > 100 µM
TGI (TK-10 renal): > 100 µM
TGI (U251 CNS): > 81 µM
TGI (UACC-257 melanoma): > 100 µM
TGI (UACC-62 melanoma): > 100 µM
TGI (UO-31 renal): > 100 µM
TGI (XF 498 CNS): 81.6 µM
